Assay results taken from PMC4187030, “Effect of cyclodextrin complexation on phenylpropanoids’ solubility and antioxidant activity” (Beilstein Journal of Organic Chemistry, 2014).
Values after ≈ are worked out from the molar mass of the structure shown. Read-outs that look alike come from different tables or passages of the source.

Assays:
[1] = Formation constants (Kf) by UV–visible spectral displacement method, α-CD; type: physicochemical; settings: UV–visible spectral displacement with MO (MO itself by direct titration), SD <10%
Experimental: (§1) Formation constant (Kf) values were calculated using a UV–visible spectral displacement method. This method implies first the characterization of the inclusion complexes between CDs and the competitor (methyl orange, MO). The results are summarized in Table 1 in comparison with values from the literature.
(§2) The UV–visible competition method with methyl orange (MO) as competitor was carried out according to the method described by Landy et al.. In order to calculate CD/PP Kf values, CD/MO inclusion complexes were firstly characterized by a direct titration method. Then, a spectral displacement method was applied by adding PP to a solution containing constant concentration of MO and CD. The addition of PP implied an absorbance increment leading to the calculation of CD/PP Kf values. Spectra were recorded between 520–530 nm for a MO concentration fixed at 0.1 mM. This wavelength range corresponds to the optimal spectral variation between the absorbance of free and complexed forms of MO. All Kf values were calculated by an algorithmic treatment applied to the first derivatives of UV spectra in order to avoid any spectral influence of diffraction phenomena. Absorption studies were performed using a UV–visible dual-beam spectrophotometer (Perkin Elmer Lambda 2S) with a 1 cm thick quartz cuvette.

[2] = Formation constants (Kf) by UV–visible spectral displacement method, β-CD; type: physicochemical; settings: UV–visible spectral displacement with MO (MO itself by direct titration), SD <10%
Experimental: as §1, §2

[3] = Formation constants (Kf) by UV–visible spectral displacement method, HP-β-CD; type: physicochemical; settings: UV–visible spectral displacement with MO (MO itself by direct titration), SD <10%
Experimental: as §1, §2

[4] = Formation constants (Kf) by UV–visible spectral displacement method, RAMEB; type: physicochemical; settings: UV–visible spectral displacement with MO (MO itself by direct titration), SD <10%
Experimental: as §1, §2

[5] = Formation constants (Kf) by UV–visible spectral displacement method, CRYSMEB; type: physicochemical; settings: UV–visible spectral displacement with MO (MO itself by direct titration), SD <10%
Experimental: as §1, §2

[6] = Experimental: (§3) Phase solubility studies were carried out according to the method described by Higuchi and Connors. Excess amount of PP was added to 1 mL of CD solution at different concentrations ranging from 0 to 10 mM. The mixtures were shaken at 25 °C for 24 h then filtered through a 0.45 μm membrane filter. The concentration of PP in the filtrate was determined spectrophotometrically at the maximum wavelength corresponding to each PP. Phase solubility diagrams were obtained by plotting the solubility of PP as a function of CD concentration. Kf value of CD/PP inclusion complex was calculated from the linear segment of the phase–solubility diagrams using the following equation: […]
(§4) where S0 is the intrinsic solubility of PP in the absence of CD and the Slope is the slope of the phase–solubility profile. The solubilizing potential of CD was evaluated by the complexation efficiency (CE) parameter. CE equal the complex to free CD concentration ratio and was calculated from the slope of the phase solubility diagram: […]
(§5) where [CD/PP] is the concentration of dissolved inclusion complex and [CD] is the concentration of dissolved free CD. The CE can be used to calculate the PP:CD ratio as follows:
(§6) The correlation between the CE and the molecular weight of CD or guest allowed the determination of the increase in formulation bulk which can be calculated using the following equation: […]
(§7) where MWCD and MWPP are the molecular weight values of CD and PP, respectively.

[7] = Phase solubility studies, β-CD
Experimental: as §3, §4, §5, §6, §7

[8] = Phase solubility studies, HP-β-CD
Experimental: as §3, §4, §5, §6, §7

[9] = Phase solubility studies, RAMEB; settings: for Increase in formulation bulk / CE (complexation efficiency) / Kf: RAMEB; for Increase in formulation bulk: from CE and molecular weights; for CE (complexation efficiency): from slope of phase solubility diagram; for Kf: from slope of phase solubility diagram and S0, 25 °C; for St/S0 (solubility enhancement ratio): guest solubility in 10 mM RAMEB solution vs water
Experimental: as §3, §4, §5, §6, §7

[10] = Phase solubility studies, CRYSMEB
Experimental: as §3, §4, §5, §6, §7

[11] = Intrinsic solubility (S0) of PP in water; type: physicochemical; settings: thermodynamic from solid, absence of CD, 25 °C
Experimental: as §3, §4

[12] = DPPH radical scavenging activity; settings: for Change of DPPH radical scavenging activity upon complexation with CDs: PP in 10 mM CD solution vs water; for Kinetic behavior of reaction with DPPH•: PP with ethanolic DPPH• solution; for DPPH radical scavenging (antioxidant) activity of PP alone: absence of CD, 1 h (3, 4, 6, 7) or 15 h (1, 2, 5), 25 °C
Experimental: The 2,2-diphenyl-1-picrylhydrazyl (DPPH) radical scavenging activity of PP and their inclusion complexes was measured using the method described by Brand-Williams, Cuvelier, and Berset (1995) with some modifications. 1 mg of PP was dissolved in 50 mL of water, or 10 mM CD solution. 2 mL aliquot of the solution was vigorously mixed with 2 mL of ethanolic DPPH^• solution (0.1 mM). […]. Blank sample was prepared by mixing 2 mL of distilled water with 2 mL of DPPH^• solution. The scavenging activity was calculated using the following equation: […]
where As and A0 are the absorbance of sample and blank sample, respectively.

[13] = design: method as in earlier work; settings: cited from earlier work
[14] = α-CD; ref 24; cited from earlier work
[15] = β-CD, cited from earlier work
[16] = HP-β-CD, cited from earlier work
[17] = RAMEB, cited from earlier work
[18] = CRYSMEB, cited from earlier work

O=C(O)/C=C/c1ccc(O)cc1 [p-Coumaric acid (5), p-coumaric acid]
Formation constant (Kf) [1]: 1816 M⁻¹
Formation constant (Kf) [2]: 338 M⁻¹
Formation constant (Kf) [3]: 787 M⁻¹
Formation constant (Kf) [4]: 1030 M⁻¹
Formation constant (Kf) [5]: 668 M⁻¹
CE (complexation efficiency) [6]: 4.17
Increase in formulation bulk [6]: 7
Kf [6]: 1988 M⁻¹
Molar ratio (PP:CD) [6]: 1:1.24
St/S0 (solubility enhancement ratio) ([7]; guest solubility in 10 mM β-CD solution vs water): 2.8
Increase in formulation bulk ([7]; β-CD, from CE and molecular weights): 18
CE (complexation efficiency) ([7]; β-CD, from slope of phase solubility diagram): 0.64
Kf ([7]; β-CD, from slope of phase solubility diagram and S0, 25 °C (linear portion for 1 and 2)): 306 M⁻¹
Increase in formulation bulk ([8]; HP-β-CD, from CE and molecular weights): 13
CE (complexation efficiency) ([8]; HP-β-CD, from slope of phase solubility diagram): 2.30
Kf ([8]; HP-β-CD, from slope of phase solubility diagram and S0, 25 °C): 1099 M⁻¹
St/S0 (solubility enhancement ratio) ([8]; guest solubility in 10 mM HP-β-CD solution vs water): 4.4
Increase in formulation bulk [9]: 11
CE (complexation efficiency) [9]: 2.57
Kf [9]: 1228 M⁻¹
St/S0 (solubility enhancement ratio) [9]: 4.4
Increase in formulation bulk ([10]; CRYSMEB, from CE and molecular weights): 11
CE (complexation efficiency) ([10]; CRYSMEB, from slope of phase solubility diagram): 1.89
Kf ([10]; CRYSMEB, from slope of phase solubility diagram and S0, 25 °C): 900 M⁻¹
St/S0 (solubility enhancement ratio) ([10]; guest solubility in 10 mM CRYSMEB solution vs water): 4
solubility at 24 h [11]: 344 µg/mL (≈ 2.1 mM)
Change of DPPH radical scavenging activity upon complexation with CDs [12]: kept unchanged
Kinetic behavior of reaction with DPPH• [12]: slow kinetic behavior
DPPH radical scavenging (antioxidant) activity of PP alone [12]: higher antioxidant activity
log P [13]: 1.43

C=CCc1ccc(O)c(OC)c1 [Eugenol (4), eugenol]
Formation constant (Kf) [1]: 350 M⁻¹
Formation constant (Kf) [3]: 436 M⁻¹
CE (complexation efficiency) [6]: 1.56
Increase in formulation bulk [6]: 10
Kf [6]: 246 M⁻¹
Molar ratio (PP:CD) [6]: 1:1.64
CE (complexation efficiency) [7]: 3.25
Increase in formulation bulk [7]: 9
Kf [7]: 513 M⁻¹
Molar ratio (PP:CD) [7]: 1:1.31
CE (complexation efficiency) [8]: 2.81
Increase in formulation bulk [8]: 12
Kf [8]: 445 M⁻¹
Molar ratio (PP:CD) [8]: 1:1.36
Increase in formulation bulk [9]: 11
CE (complexation efficiency) [9]: 3.48
Kf [9]: 550 M⁻¹
St/S0 (solubility enhancement ratio) [9]: 2.2
CE (complexation efficiency) [10]: 2.78
Increase in formulation bulk [10]: 10
Kf [10]: 440 M⁻¹
Molar ratio (PP:CD) [10]: 1:1.36
solubility at 24 h [11]: 1040 µg/mL (≈ 6.32 mM)
Change of DPPH radical scavenging activity upon complexation with CDs [12]: kept unchanged
Kinetic behavior of reaction with DPPH• [12]: reacted rapidly
DPPH radical scavenging (antioxidant) activity of PP alone [12]: higher antioxidant activity
Formation constant (Kf) [14]: 94 M⁻¹
Formation constant (Kf) ([15]; ref 21): 322 M⁻¹
Formation constant (Kf) ([15]; ref 24): 264 M⁻¹
Formation constant (Kf) ([15]; ref 25): 357 M⁻¹
Formation constant (Kf) ([16]; ref 21): 445 M⁻¹
Formation constant (Kf) ([16]; ref 24): 462 M⁻¹
Formation constant (Kf) ([17]; ref 21): 521 M⁻¹
Formation constant (Kf) ([17]; ref 24): 568 M⁻¹
Formation constant (Kf) ([18]; ref 21): 401 M⁻¹
Formation constant (Kf) ([18]; ref 24): 454 M⁻¹
log P [13]: 2.100
